Assay results reported in patent US5064833A, “Substituted quinazoline derivatives for use in gastrointestinal diseases” (Smithkline Beecham Intercredit B.V., priority 1989, dated 1991).
Where a name gives a salt, the structure may show the parent alone.

test system: isolated rat osteoclasts; experiment: Bone resorption by isolated rat osteoclasts on cortical bone slices; format: cell-based; settings: Osteoclast, 10 μM, 18 hours, control = 100 ± 27, Mean ± SEM, n = 12
Protocol: Bone resorption was measured by the actions of isolated rat osteoclasts on cortical bone slices (Zaidi et al Quarterly Journal of Experimental Physiology 1988 73:471-485). Newborn Wistar rats were killed by decapitation and their femora and tibiae removed. Osteoclasts were mechanically disaggregated by curetting the bones into medium followed by agitation with a pipette. Osteoclasts were separated from other cells by sedimentation onto bone slices (15 minutes, 37°) after which the slices were removed and gently washed. The bone slices were then incubated in the presence of test compounds (37°, 10% humidified CO2, 18 hours) and fixed with glutaraldehyde. The degree of bone resorption was then assessed by the area of erosions produced by the osteoclasts using scanning electron microscopy. Data were meaned from measurements of 6 bone slices in each of two independent experiments.
Test compounds were dissolved in ethanol which was also added to control incubations (1%) in the absence of compound.

`Cc1cc(F)ccc1Nc1nc(N(C)c2ccccc2)c2cc(O)ccc2n1` [Example 56, 4-(N-methylphenylamino)-2-[(2-methyl-4-fluorophenyl)amino]-6-hydroxyquinazoline hydrochloride] gave an activity at 10 µM of 7 ± 4%.

same assay, conditions: Osteoclast, 100 μM, 18 hours, control = 100 ± 27, Mean ± SEM, n = 12

`Cc1cc(F)ccc1Nc1nc(N(C)c2ccccc2)c2cc(O)ccc2n1` [Example 56, 4-(N-methylphenylamino)-2-[(2-methyl-4-fluorophenyl)amino]-6-hydroxyquinazoline hydrochloride] showed an activity at 100 µM of 7%.

test system: pentagastrin stimulated gastric acid secretion; experiment: Rat lumen perfused stomach (pentagastrin stimulated gastric acid secretion); format: in vivo; settings: iv, i.v. administration, 10 μmole/kg, read-out: Rat G.S. % inhibition @ 10 μmole/kg
Description: Using a modification of the procedure described by Ghosh and Schild (Br. J. Pharmacology, 13, 54, 1958), the compounds of the following Examples were found on i.v. administration at a concentration of 10 μmole/kg to cause an inhibition of pentagastrin stimulated gastric acid secretion as indicated in the following Table.

First: Cc1ccccc1CNc1nc(N)nc2ccccc12 [Example 25, 2-amino-4-(2-methylbenzylamino)quinazoline]
Second: Cc1ccccc1Nc1nc(N)nc2ccccc12 [Example 7, 2-amino-4-(2-methylphenylamino)quinazoline]
The inhibition in vivo at 10 µmol/kg of the first is higher: 24% for the first, 20% for the second.

Compared with `COc1ccc(Nc2nc(N)nc3c(OC)cccc23)c(C)c1` [Example 3, 2-amino-8-methoxy-4-(2-methyl-4-methoxyphenylamino)quinazoline], `COc1cccc2c(Nc3ccccc3C)nc(N)nc12` [Example 1, 2-amino-8-methoxy-4-(2-methylphenylamino)quinazoline] is higher in inhibition in vivo at 10 µmol/kg: 16% for the first, 60% for the second.

Compared with `Cc1cc(O)ccc1Nc1nc(N(C)c2ccccc2)c2ccccc2n1` [Example 30, 2-(4-hydroxy-2-methylphenyl)amino1-4-(N-methylphenylamino) quinazoline hydrochloride], `Cc1cc(F)ccc1Nc1nc(N(C)c2ccccc2)c2ccccc2n1` [Example 32, 2-(2-methyl-4-fluorophenyl)amino]-4-(N-methylphenylamino)quinazoline hydrochloride] is higher in inhibition in vivo at 10 µmol/kg: 23% for the first, 96% for the second.

First: Cc1ccccc1Nc1nc(N2CCCC2)nc2ccccc12 [Example 8, 2-pyrrolidino-4-(2-methylphenylamino)quinazoline]
Second: COc1cccc2c(Nc3ccccc3C)nc(N3CCCC3)nc12 [Example 15, 2-pyrrolidino-8-methoxy-4-(2-methylphenylamino)quinazoline]
The inhibition in vivo at 10 µmol/kg of the first is lower: 17% for the first, 31% for the second.

Going from `Cc1ccccc1Nc1nc(NCCc2ccccc2)nc2ccccc12` [Example 16, 2-phenylethylamino-4-(2-methylphenylamino)quinazoline] to `Cc1ccccc1Nc1nc(N(C)c2ccccc2)nc2ccccc12` [Example 22, 2-(N-methylphenylamino)-4-(2-methylphenylamino)quinazoline hydrochloride], the inhibition in vivo at 10 µmol/kg falls from 31% to 27%.

Compared with `COc1cccc2c(Nc3ccccc3C)nc(N(C)C)nc12` [Example 5, 2-dimethylamino-8-methoxy-4-(2-methylphenylamino)quinazoline], `CNc1nc(Nc2ccccc2C)c2cccc(OC)c2n1` [Example 13, 2-methylamino-8-methoxy-4-(2-methylphenylamino)quinazoline] is lower in inhibition in vivo at 10 µmol/kg: 37% for the first, 20% for the second.

Compared with `COc1cccc2c(N(C)c3ccccc3)nc(N)nc12` [Example 29, 2-amino-4-(N-methylphenylamino)-8-methoxyquinazoline hydrochloride], `COc1cccc2c(NCc3ccccc3)nc(N)nc12` [Example 2, 2-amino-8-methoxy-4-benzylaminoquinazoline] is higher in inhibition in vivo at 10 µmol/kg: 13% for the first, 25% for the second.

First: COc1cccc2c(Nc3ccccc3C)nc(N(C)c3ccccc3)nc12 [Example 21, 2-(N-methylphenylamino)-4-(2-methylphenylamino)-8-methoxyquinazoline]
Second: COc1cccc2c(N(C)c3ccccc3)nc(Nc3ccccc3C)nc12 [Example 24, 4-(N-methylphenylamino)-2-(2-methylphenylamino)-8-methoxyquinazoline]
The inhibition in vivo at 10 µmol/kg of the first is lower: 37% for the first, 97% for the second.

Compared with `COc1cccc2c(NCc3ccccc3C)nc(N)nc12` [Example 4, 2-amino-8-methoxy-4-(2-methylbenzylamino)quinazoline], `COc1ccccc1Nc1nc(N)nc2c(OC)cccc12` [Example 18, 2-amino-8-methoxy-4-(2-methoxyphenylamino)quinazoline] is lower in inhibition in vivo at 10 µmol/kg: 37% for the first, 12% for the second.

Compared with `CN(c1ccccc1)c1nc(Nc2ccccc2)nc2ccccc12` [Example 27, 2-phenylamino-4-(N-methylphenylamino)quinazoline hydrochloride], `Cc1ccccc1Nc1nc(N(C)c2ccccc2)c2ccccc2n1` [Example 26, 2-(2-methylphenylamino)-4-(N-methylphenylamino)quinazoline hydrochloride] is higher in inhibition in vivo at 10 µmol/kg: 71% for the first, 79% for the second.

First: CCc1ccc2nc(N)nc(Nc3ccccc3C)c2c1 [Example 11, 2-amino-4-(2-methylphenylamino)-6-ethylquinazoline]
Second: Cc1ccccc1Nc1nc(N)nc2c(C)cccc12 [Example 6, 2-amino-8-methyl-4-(2-methylphenylamino)quinazoline]
The inhibition in vivo at 10 µmol/kg of the first is lower: 28% for the first, 48% for the second.

Compared with `CN(c1ccccc1)c1nc(N(C)c2ccccc2)c2ccccc2n1` [Example 20, 2,4-Bis-(N-methylphenylamino)quinazoline hydrochloride], `Cc1ccccc1CNc1nc(N(C)c2ccccc2)c2ccccc2n1` [Example 31, 2-(2-methvlbenzylamino)-4-(N-methylphenylamino)quinazoline hydrochloride] is lower in inhibition in vivo at 10 µmol/kg: 72% for the first, 8% for the second.
